# Data from paper PMC6071567 (Cold Spring Harbor Molecular Case Studies, 2018).
# Entries after “also recorded” stand apart in the source; their conditions may differ. Where two headings read alike, the source gives them in different places.
# How the values were obtained:
# CLB-GE = experiment: Cell viability by resazurin assay, 72 h; assay type: cell-based; settings: Homo sapiens
# CLB-BAR = experiment: Cell viability by resazurin assay, 72 h; assay type: cell-based; settings: Homo sapiens
# KELLY = experiment: Cell viability by resazurin assay, 72 h; assay type: cell-based, human; settings: ALK F1174L, amplified, MYCN amplified
# CLB-GAR = experiment: Cell viability by resazurin assay, 72 h; assay type: cell-based, human; settings: ALK R1275Q, MYCN nonamplified
# IMR32 = experiment: Cell viability by resazurin assay, 72 h; assay type: cell-based, human; settings: ALK wt, MYCN amplified
# SK-N-BE = experiment: Cell viability by resazurin assay, 72 h; assay type: cell-based; settings: Homo sapiens
# SK-N-DZ = experiment: Cell viability by resazurin assay, 72 h; assay type: cell-based; settings: Homo sapiens
# SK-N-AS = experiment: Cell viability by resazurin assay, 72 h; assay type: cell-based; settings: Homo sapiens
# CLB-PE = experiment: Cell viability by resazurin assay, 72 h; assay type: cell-based; settings: Homo sapiens
# [1] = system: ALK-I1171T metastatic neuroblastoma; assay type: in vivo, human; settings: for Primary tumor volume (MRI): ∼18.8 mL immediately before start
SMILES,IC50 (CLB-GE) [nM],IC50 (CLB-BAR) [nM],IC50 (KELLY) [nM],"IC50 (KELLY; Homo sapiens, Kelly) [nM]",IC50 (CLB-GAR) [nM],IC50 (CLB-GAR; Homo sapiens) [nM],IC50 (IMR32) [nM],"IC50 (IMR32; Homo sapiens, IMR-32, 72 h) [nM]",IC50 (SK-N-BE) [nM],IC50 (SK-N-DZ) [nM],IC50 (SK-N-AS) [nM],IC50 (CLB-PE) [nM],"Clinical evaluation (CT, MRI, MIBG scintigraphy) ([1]; 21 mo after initiation of ceritinib, 1 yr after surgery)",Primary tumor volume (MRI) ([1]; after 3 mo therapy) [mL],"Primary tumor volume (MRI) ([1]; after 6 mo therapy, prior to surgery) [mL]","Decrease in size of primary tumor (MRI, volumetric) ([1]; after 6.5 mo of ceritinib treatment) [%]",Clinical status ([1]; after 34 mo of continuous ceritinib treatment),"Urinary catecholamines ([1]; after the first 4-wk cycle, 450 mg/m^2 once daily)","Ki-67 positivity of resected tumor ([1]; tumor removed at 7.5 mo of treatment, 27% before treatment) [%]"
"Cc1cc(Nc2ncc(Cl)c(Nc3ccccc3S(=O)(=O)C(C)C)n2)c(OC(C)C)cc1C1CCNCC1 [ceritinib, 5-chloro-N2-(2-isopropoxy-5-methyl-4-(piperidin-4-yl)phenyl)-N4-(2-(isopropylsulfonyl)phenyl)pyrimidine-2,4-diamine]",131 ± 24,36.1 ± 6.2,329 ± 36,~330,102 ± 16,~110,> 500,> 350,> 1500,> 800,> 3000,> 15000,complete remission at all metastatic sites; also recorded: no residual tumor in the abdomen and complete resolution of metastases at all sites,~13.8,~10.6,−43.6,continuous complete remission,decreased to levels below the upper reference limit,5
C[C@@H](Oc1cc(-c2cnn(C3CCNCC3)c2)cnc1N)c1c(Cl)ccc(F)c1Cl [crizotinib],234 ± 18,54.9 ± 20,333 ± 78,~330,,,349 ± 45,> 350,> 1000,> 4000,353 ± 27,> 4000,,,,,,,
